Assays:
MCF7 [1] = assay: VEPEP-5 mediated delivery of small hydrophobic molecules, inhibition of proliferation; format: cell-based; settings: Homo sapiens, free drug without carrier
From the text: (§1) VEPEP-5 peptides (Short-6, Short-7 and Short 11) have been used for the delivery of different small hydrophobic molecules including doxorubicin and porphyrin on different cell lines including primary cell lines and challenging cell lines. VEPEP-5 peptides form stable particles with small aromatic molecules (table 2). Effect of VEPEP-5 mediated delivery of doxorubicin and porphyrin have been investigated on cancer cell viability. […] The impact of carrier peptides to improve cellular uptake of small molecule drugs was estimated by following inhibition of proliferation of cancer cells.

Hela [2] = assay: as above; format: cell-based; settings: Homo sapiens, free drug without carrier
From the text: as §1

[3] = Fluorescence titration, VEPEP-5/SHM binding: doxorubicin; settings: cargo Doxorubicin
Protocol: (§2) Fluorescence experiments were performed on a PTI spectrofluorimeter at 25° C. in a NaCl 154 mM buffer. Intrinsic Trp-fluorescence of VEPEP-5 was excited at 290 nm and emission spectrum was recorded between 310 and 400 nm, with a spectral band-pass of 2 and 8 nm for excitation and emission, respectively. FITC-fluorescence of labelled-peptide was excited at 492 nm and emission recorded between 500 and 580 nm. For […]/peptide interaction, 0.5 μM of FITC-labelled peptide was titrated by increasing concentrations of VEPEP-5. All measurements were corrected for the dilution and curve fitting were performed by using Grafit software (Erithacus).
(§3) VEPEP-5 peptides also form stable particles with small aromatic molecules including doxorubicin, porphyrin and charges molecules including nucleotide, nucleoside and peptide-analog of nucleic acids or fluorescent dyes (FIG. 1). The dissociation constant for small hydrophobic molecule ranges between 0.05 to 0.1 μM, depending on the nature of the dyes and of the peptides (Table 2).

HeLa and U2OS cells = assay: Toxicity of VEPEP-5 particles by MTT assay; format: cell-based, Human
Protocol: Cytotoxic response was measured 24 hr later by colorimetric MTT assay (Sigma, Germany), respectively. […] Results correspond to the average of 3 separate experiments.

[4] = Fluorescence titration, VEPEP-5/SHM binding: FAM-guanosine; settings: cargo FAM-guanosine
Protocol: as §2, §3

CEM-SS [5] = assay: VEPEP-5 mediated delivery of proteins (fluorescence/FACS); format: cell-based, Human; settings: % of the cells
Protocol: (§4) Adherent HS68 fibroblasts, HeLa, PC3, Jurkat, CEM-SS and U2OS MCF-7 cell lines (from American Type Culture Collection (ATCC)), as well as MEF and PBMC were cultured in Dulbecco's Modified Eagle's Medium supplemented with 2 mM glutamine, 1% antibiotics (streptomycin 10,000 μg/ml, penicillin, 10,000 IU/ml) and 10% (w/v) foetal calf serum (FCS), at 37° C. in a humidified atmosphere containing 5% CO2. Stock solutions of VEPEP-5/peptide particles were prepared by complexing 1 μM peptide with VEPEP-5 peptides at a molar ratio of 1/20 for 30 min at 37° C. Lower concentrations of VEPEP-5-carrier/peptide (from 500 nM to 1 μM) were obtained by serial dilution of the stock complexes in PBS, in order to preserve the same VEPEP-5-carrier/peptide ratio. 150 000 cells seeded in a 35 mm dish the day prior transfection, were grown to 60% confluence and overlaid with 200 μl of preformed complexes, incubated for 3-5 min, then 400 μl of DMEM were added. After 30 min. incubation at 37° C., 1 ml of fresh DMEM containing 16% foetal calf serum (FCS) was added in order to reach a final FCS concentration of 10%, without removing the overlay of VEPEP-5/peptide complexes. Cells were returned to the incubator for 24 hrs. For CDK2 derived peptides cell proliferation was monitored after 24 and 48 hrs. Data reported are an average of 3 or 4 distinct experiments.
(§5) VEPEP-5 have been used for the delivery of different proteins into different cell lines, including primary cell lines, stem cell lines and challenging cell lines. Protein uptake was monitored using fluorescence spectroscopy and FACS analysis. GFP/RFP or Fluorescent labelled proteins were visualized in the different cell lines using fluorescence microscopy or FACS sorting (Table 5). In most of the cell lines, the uptake of RFP; GFP, Cy-5 labelled proteins is more than 50% of the cells.

Jurkat = assay: as above; format: cell-based, Human; settings: % of the cells
Protocol: as §4, §5

HS-68 [6] = assay: as above; format: cell-based, Human; settings: HS-68, % of the cells
Protocol: as §4, §5

MCF7 [7] = assay: as above; format: cell-based, Human; settings: MCF7, % of the cells
Protocol: as §4, §5

U2OS [8] = assay: as above; format: cell-based, Human; settings: % of the cells
Protocol: as §4, §5

Hela [9] = assay: as above; format: cell-based, Human; settings: % of the cells
Protocol: as §4, §5

MEF [10] = assay: VEPEP-5 mediated delivery of fluorescent labelled peptide (microscopy/FACS); format: cell-based, Mouse; settings: % of the cells
Protocol: as §4
(§6) VEPEP-5 peptides (Short-6, Short-7 and Short 11) have been used for the delivery of different peptides into different cell lines, including primary cell lines, stem cell lines and challenging cell lines. Peptide delivery was monitored using three approaches, fluorescence spectroscopy and monitoring biological responses (anti proliferation)
(§7) 1—Fluorescent labelled peptide was visualized in the different cell lines using fluorescence microscopy or FACS sorting (Table 3). In most of the cell lines, the uptake of Cy-5 labelled peptides is more than 70% of the cells

MEF [11] = assay: VEPEP-5 mediated delivery of proteins (fluorescence/FACS); format: cell-based, Mouse; settings: % of the cells
Protocol: as §4, §5

CEM-SS [12] = assay: VEPEP-5 mediated delivery of fluorescent labelled peptide (microscopy/FACS); format: cell-based, Human; settings: % of the cells
Protocol: as §4, §6, §7

HS-68 [13] = assay: as above; format: cell-based, Human; settings: HS-68, % of the cells
Protocol: as §4, §6, §7

MCF7 [14] = assay: as above; format: cell-based, Human; settings: MCF7, % of the cells
Protocol: as §4, §6, §7

U2OS [15] = assay: as above; format: cell-based, Human; settings: % of the cells
Protocol: as §4, §6, §7

Hela [16] = assay: as above; format: cell-based, Human; settings: % of the cells
Protocol: as §4, §6, §7

PBMC = assay: as above; format: cell-based, Human; settings: % of the cells
Protocol: as §4, §6, §7

[17] = Fluorescence titration, VEPEP-5/SHM binding: porphyrin; settings: cargo porphyrin
Protocol: as §2, §3

Cyclin B1 protein level = assay: VEPEP-5 mediated delivery of PNA antisense, Cyclin B1 knockdown; format: cell-based, Human; settings: controls: free PNA; scrambled PNA complexed with Short-6 and Short-11
From the text: VEPEP-5 (Short-6, Short-7 and Short 11) peptides have been used for the delivery of nucleic acid analog (PNA and morpholino) into different cell lines, including primary cell lines and challenging cell lines. Uptake was monitored by following biological response (Cyclin B1 knockdown). We then have applied Short-6, Short-7 and Short 11 for the delivery of PNA antisense targeting Cyclin B1 as previously described by Morris et al..

MCF7 [18] = assay: VEPEP-5 mediated delivery of C4 peptide (targeting cdk2/cyclin A), cell proliferation; format: cell-based, Human; settings: VEPEP-5 (Short-6, Short-7 and Short 11) mediated delivery
Protocol: as §4, with “experiments. […]” for “experiments.”

Hela [19] = assay: as above; format: cell-based, Human; settings: VEPEP-5 (Short-6, Short-7 and Short 11) mediated delivery
Protocol: as §4, with “experiments. […]” for “experiments.”

Binding, Doxorubicin [3]	Binding, FAM-guanosine [4]	Binding, porphyrin [17]	Kd [17] [nM]	Compound	toxicity (MTT) (HeLa and U2OS cells; levels up to 200 nM)	toxicity (MTT) (HeLa and U2OS cells; maximum concentration of 1 μM)	uptake of RFP; GFP, Cy-5 labelled proteins (CEM-SS [5]) [%]	uptake of RFP; GFP, Cy-5 labelled proteins (Jurkat) [%]	uptake of RFP; GFP, Cy-5 labelled proteins (HS-68 [6]) [%]	uptake of RFP; GFP, Cy-5 labelled proteins (MCF7 [7]) [%]	uptake of RFP; GFP, Cy-5 labelled proteins (U2OS [8]) [%]	uptake of RFP; GFP, Cy-5 labelled proteins (Hela [9]) [%]	Efficiency (uptake of fluorescent labelled peptide) (MEF [10]) [%]	uptake of RFP; GFP, Cy-5 labelled proteins (MEF [11]) [%]	Efficiency (uptake of fluorescent labelled peptide) (CEM-SS [12]) [%]	Efficiency (uptake of fluorescent labelled peptide) (HS-68 [13]) [%]	Efficiency (uptake of fluorescent labelled peptide) (MCF7 [14]) [%]	Efficiency (uptake of fluorescent labelled peptide) (U2OS [15]) [%]	Efficiency (uptake of fluorescent labelled peptide) (Hela [16]) [%]	Efficiency (uptake of fluorescent labelled peptide) (PBMC) [%]	other results
				C1=Cc2cc3ccc(cc4nc(cc5ccc(cc1n2)[nH]5)C=C4)[nH]3 [Porphyrin, porphyrin]																	IC50 (MCF7 [1]): 17000 nM; IC50 (Hela [2]): 25000 nM
yes	yes	yes	500	X1WFRLWFRLR [Short 7, X1 is beta-A or S; N-terminus acetylated, C-terminal cysteamide]	No toxicity	mild toxicity	60	70	80	75	80	80	71	65	75	78	75	71	70	80	Kd [3]: 70 nM
				TGC CAT CAA GCT TAG AGG-^CY5 (antisense TGCCATCAAGCTTAGAGG; all peptide nucleic acid (PNA); further chemistry not fully specified) [free PNA, PNA antisense targeting Cyclin B1, without carrier]																	change in Cyclin B1 level (Cyclin B1 protein level): no change
yes	yes	yes	700	X1RSWFRLWFR [Short 11, X1 is beta-A or S; N-terminus acetylated, C-terminal cysteamide]	No toxicity	mild toxicity	65	78	70	62	71	60	70	60	70	80	58	55	69	78	
yes	yes	yes	400	X1WWRLWWRLR [Short 6, X1 is beta-A or S; N-terminus acetylated, C-terminal cysteamide]	No toxicity	mild toxicity	55	60	78	70	64	55	64	65	74	89	59	68	45	78	Kd [4]: 60 nM
				KKQVRMAHLVLT (synthesized peptide C4) [Short C4]																	peptide C4 concentration sufficient to block proliferation (MCF7 [18]): 100 nM; peptide C4 concentration sufficient to block proliferation (Hela [19]): 100 nM

— patent US10118944B2, “Cell penetrating peptides for intracellular delivery of molecules” (AADIGEN, LLC, priority 2012, dated 2018)
